The values below come from patent US20260240827A1, “PALATABLE LIQUID SOLUTION CONTAINING HIGH CONCENTRATION OF MIGLUSTAT” (THERANEXUS, priority 2022, published 2026).

Series [1] is described as follows: Drug excipient compatibility: physical description after storage. It counts as physicochemical. To be noted: up to 4 weeks 40° C./75% RH and 25° C./60% RH, 60° C. 1 week. The protocol: This study was conducted to assess the compatibility of miglustat with excipient candidates that can be used in the liquid Miglustat product. Each different excipient was manually stirred with miglustat and stored into amber glass vials.
Vials were stored in climatic chambers with different environmental conditions: 25° C./60% RH, 40° C./75% RH and 60° C. for up to 4 weeks, in closed containers. (RH=relative humidity)
After the defined storage time, samples were exited from the climatic chambers. Operators observed the solution and described the appearance of the solution by visual inspection.

For series [2] the following is noted: ambient temperature; cited from earlier work.

Structures are written as SMILES.

`O=C([O-])c1ccccc1.[Na+]` [Sodium Benzoate, sodium salt of benzoic acid]: in series [1], the “Compatibility of excipient with Miglustat in binary mixture (DEC study conclusion)” value (shortened to “Compatibility of excipient”) was “compatible”.

As to `Cl` [Hydrochloric acid], the “Compatibility of excipient” value in series [1] is “not compatible”.

As for `CCCCN1C[C@H](O)[C@@H](O)[C@H](O)[C@H]1CO` [Miglustat, 1,5-(butylimino)-1,5-dideoxy-D-glucitol], in series [2], the Solubility in water was more than 1000 mg/mL.

In the case of `O=C1O[C@H]([C@@H](O)CO)C(O)=C1O` [ascorbic acid], the “Compatibility of excipient” value in series [1] is given as “not compatible”.

Consider `O=C(O)C(O)C(O)C(=O)O` (stereo not drawn) [Tartaric acid, 2,3-Dihydroxybutanedioic acid], for which the “Compatibility of excipient” value in series [1] is “compatible”.

Take `CC1=CC(=O)NS(=O)(=O)O1` [Acesulfame Potassium]: in series [1], the “Compatibility of excipient” value is recorded as “not compatible”.
